Laboratory results reported in paper PMC6274124, “Design, Synthesis and Biological Evaluation of Brain-Targeted Thiamine Disulfide Prodrugs of Ampakine Compound LCX001” (Molecules, 2016).

Key:
[1] = test system: respiratory depression induced by pain relieving opiates; design: method as in PMID 19907420; details: single oral dose of 1500 mg, without affecting the pain relieving effects; cited from earlier work
[2] = Metabolic stability in mice brain homogenate at 37 °C; format: in vitro ADME; details: for half-life at 1.67 µg/mL: mouse, mouse brain homogenate
Method: (§1) To determine the plasma stability and brain stability of these prodrugs, we assayed the pharmacokinetics of the prepared compounds 7a–7f in mice plasma extract and brain homogenate at 37 °C. The pseudo-first order rate constants of disappearance (Ke) of the prodrugs and their half lives (t1/2) which were calculated by linear regression of Ln of peak area against time in minutes are listed in Table 1.
(§2) Blood was drawn from mice though the orbital sinus and was collected in a heparinized tube paved with heparin sodium. Samples were centrifuged at 10,000 rpm for 16 min to separate plasma which was diluted with four volumes of water. The brain was removed and homogenized. Samples were then placed on ice and used immediately. Ten μL acetonitrile solution (10 μg/mL) of the compound was added to 50 μL of plasma or brain homogenate and gently vortexed. Samples were incubated at 37 °C and aliquots were removed after 0, 5, 15, 30, 60 and 90 min, respectively. One hundred μL acetonitrile was added to each and vortexed. Samples were centrifuged for 10 min to remove proteins and the supernatants were analyzed by LC-MS/MS method as described.

[3] = Metabolic stability in mice plasma extract at 37 °C; format: in vitro ADME; details: for half-life at 1.67 µg/mL: mouse
Method: as §1, §2

opiate poisoned mice = assay: Model of opiate-induced respiratory depression (030418-induced), mortality of mice; format: in vivo, Kunming mice; details: for Death Rate: 10 min before 030418 15 mg/kg sc
Method: To investigate the effect of 7e on opiate-induced respiratory depression, we proceeded with a preliminary pharmacodynamic study in mice. […] Varying doses of prodrug 7e were administered 10 min before 030418 administration. The effect of prodrug 7e and LCX001 on opiate-induced respiratory depression was evaluted by the mortality of mice. […] Further pharmacodynamic studies are currently underway.
A total of 80 male Kunming mice weighing 20–22 g were used in this study. Animals were fed ad libitum with a commercial rodent feed and had free access to drinking water. All animals received human care, and the study protocols complied with the guidelines of the animal center of academy of military medical sciences. Throughout the experiments, the animals were handled according to the international ethical guidelines for the care of laboratory animals.
Respiratory depression in conscious mice was induced by hypodermic (15 mg/kg) administration of 030418. Ten min prior to 030418 administration, animals were randomly assigned to the experimental groups and received an intravenous injection of either saline solution (control), LCX001 (10 mg/kg), prodrug 7e (30 mg/kg, 10 mg/kg, 3 mg/kg, 1 mg/kg or 0.5 mg/kg) (Table 4).
During the experiment, the poisoning time, poisoning symptoms and death time were recorded. The death rate (death number/sample number) was used to evaluate the effect of 7e on opiate-induced respiratory depression.

[4] = Brain distribution of LCX001 after i.v. administration; format: in vivo, Kunming mice; details: mice; for AUC0-t: LCX001 in brain, single dose equivalent to 1 mg/kg LCX001, n = 3
Description: To further evaluate the possibility of prodrug 7e being transported across the BBB, the brain distribution of prodrug 7e and LCX001 after injection were detected at fixed time intervals. […] The AUC0-t for prodrug 7e was enhanced to 2.23 times that of LCX001. The MRT0-t was increased to 3.29 times that of LCX001. […] This agreed well with the fact that the “lock-in” effect and sustained release effect of the prodrug 7e could effectively delay the clearance of LCX001.
(§3) Mice were randomly divided into two groups, 27 in each group, for different sampling times and housed in one cage. Each animal was injected with 7e or LCX001 in 20% w/v hydroxypropyl-β-cyclodextrin and saline (0.45%) solution through the tail vein at a single dose equivalent to 1 mg/kg body weight of LCX001. At appropriate time intervals (5, 10, 30, 45, 60, 90, 120, 240 and 480 min), the animals were sacrificed and 1 mL blood samples withdrawn from the orbital sinus were collected in heparinized tubes. Fifty μL plasma was immediately separated by centrifugation, diluted with 200 μL methanol and stored at −20 °C until assay. Meanwhile, the brain was removed, weighed, homogenized and diluted with methanol to 1:5 (g/mL). The homogenates were also stored at −20 °C until assay. Internal standard (200 ng/mL) was added to the samples. The samples were vortexed for 3 min and then centrifuged at 9500 rpm for 15 min. Fifty μL supernatants were withdrawn, then 50 μL of water was added to each aliquot and vortexed. Ten μL samples were analyzed by LC-MS/MS method as described.
The Cmax, AUC0-t, Tmax, MRT0-t and t1/2 were calculated by WinNonlin software (version 5.2.1, Pharsight, Mountain View, CA, USA). Statistical evaluation was performed using analysis of variance followed by t-test. A value of p < 0.05 was considered significant.

[5] = Pharmacokinetics of LCX001 in plasma after i.v. administration; format: in vivo, Kunming mice; details: mice
Method: The compounds were injected through the caudal vein of the mice with a single dose equivalent to 1 mg/kg body weight of LCX001, and then blood was collected to analyze the concentration of LCX001 at different intervals by an LC-MS/MS method.
as §3, with “Fifty μL supernatants were withdrawn, then 50 μL of water was added to each aliquot and vortexed.” left out
The Cmax, AUC0-t, Tmax, MRT0-t and t1/2 were calculated by WinNonlin software (version 5.2.1, Pharsight, Mountain View, CA, USA). […]

[6] = test system: damphetamine- stimulated locomotion; design: method as in earlier work; details: behavioral testing; cited from earlier work
[7] = test system: field excitatory postsynaptic potential (EPSP) in the rat dentate gyrus; design: method as in earlier work; details: cited from earlier work

Row | melting point | half-life at 1.67 µg/mL [2] | half-life at 1.67 µg/mL [3] | SMILES | Ke, pseudo-first order rate constant of disappearance [2] | Ke, pseudo-first order rate constant of disappearance [3] | further results
1 |  |  |  | O=C(c1ccc2nonc2c1)N1CCOCC1 [CX717] |  |  | Effect on opiate-induced respiratory depression [1]: positive effects
2 | 78.8 to 79.5 °C | 3.48 min | 2.23 min | CCSS/C(CCOC(=O)CCCC(=O)O[C@H]1CC[C@H](N(C)C(=O)c2ccc3nonc3c2)CC1)=C(/C)N(C)C=O [Compound 7a, S-3-(Ethyldisulfanyl)-4-(N-methylformamido)pent-3-en-1-yl((1R,4R)-4-(N-methylbenzo[c][1,2,5]oxadiazole-5-carboxamido)cyclohexyl) glutarate] | 19.9 min^−1 (×10^−2) | 31.1 min^−1 (×10^−2) | 
3 | 78 to 79.3 °C | 10.2 min | 9.82 min | CCCSS/C(CCOC(=O)CCCC(=O)O[C@H]1CC[C@H](N(C)C(=O)c2ccc3nonc3c2)CC1)=C(/C)N(C)C=O [Compound 7b, S-3-(Propyldisulfanyl)-4-(N-methylformamido)pent-3-en-1-yl((1R,4R)-4-(N-methylbenzo[c][1,2,5]oxadiazole-5-carboxamido)cyclohexyl) glutarate] | 6.82 min^−1 (×10^−2) | 7.06 min^−1 (×10^−2) | 
4 | 67.6 to 68.4 °C | 17.1 min | 10.2 min | CCCCSS/C(CCOC(=O)CCCC(=O)O[C@H]1CC[C@H](N(C)C(=O)c2ccc3nonc3c2)CC1)=C(/C)N(C)C=O [Compound 7c, S-3-(Butyldisulfanyl)-4-(N-methylformamido)pent-3-en-1-yl((1R,4R)-4-(N-methylbenzo[c][1,2,5]oxadiazole-5-carboxamido)cyclohexyl) glutarate] | 4.05 min^−1 (×10^−2) | 6.77 min^−1 (×10^−2) | 
5 | 69.3 to 70.3 °C | 10.9 min | 15.4 min | CCCCCSS/C(CCOC(=O)CCCC(=O)O[C@H]1CC[C@H](N(C)C(=O)c2ccc3nonc3c2)CC1)=C(/C)N(C)C=O [Compound 7d, S-3-(Amyldisulfanyl)-4-(N-methylformamido)pent-3-en-1-yl((1R,4R)-4-(N-methylbenzo[c][1,2,5]oxadiazole-5-carboxamido)cyclohexyl) glutarate] | 6.34 min^−1 (×10^−2) | 4.50 min^−1 (×10^−2) | 
6 | 72.9 to 73.8 °C | 12 min | 15.5 min | C/C(=C(\CCOC(=O)CCCC(=O)O[C@H]1CC[C@H](N(C)C(=O)c2ccc3nonc3c2)CC1)SSCc1ccccc1)N(C)C=O [Compound 7f, S-3-(Benzyldisulfanyl)-4-(N-methylformamido)pent-3-en-1-yl((1R,4R)-4-(N-methylbenzo[c][1,2,5]oxadiazole-5-carboxamido)cyclohexyl) glutarate] | 5.78 min^−1 (×10^−2) | 4.48 min^−1 (×10^−2) | 
7 |  |  |  | CN(C(=O)c1ccc2nonc2c1)[C@H]1CC[C@H](O)CC1 [LCX001] |  |  | Inhibition of d-amphetamine-stimulated locomotion [6]: 100%; Death Rate (opiate poisoned mice; iv 10 mg/kg): 20%; AUC0-t [4]: 504.32 ± 204.71 ng·h/g; Increase in amplitude of the field EPSP [7]: 21%

Row | SMILES | melting point | half-life at 1.67 µg/mL [2] | half-life at 1.67 µg/mL [3] | Ke, pseudo-first order rate constant of disappearance [2] | Ke, pseudo-first order rate constant of disappearance [3] | further results
8 | C/C(=C(\CCOC(=O)CCCC(=O)O[C@H]1CC[C@H](N(C)C(=O)c2ccc3nonc3c2)CC1)SSCCC(C)C)N(C)C=O [Compound 7e, S-3-(Isoamyldisulfanyl)-4-(N-methylformamido)pent-3-en-1-yl((1R,4R)-4-(N-methylbenzo[c][1,2,5]oxadiazole-5-carboxamido)cyclohexyl) glutarate] |  | 18.8 min | 16 min | 3.69 min^−1 (×10^−2) | 4.34 min^−1 (×10^−2) | Required molar dose relative to LCX001 to achieve the same effect (opiate poisoned mice; 3 mg/kg 7e gave the same effect as 10 mg/kg LCX001 on reducing mortality): one eighth; Death Rate (opiate poisoned mice; iv 0.5 mg/kg): 50%; Death Rate (opiate poisoned mice; iv 1 mg/kg): 30%; Death Rate (opiate poisoned mice; iv 3 mg/kg): 20%; Death Rate (opiate poisoned mice; iv 10 mg/kg): 0%; Death Rate (opiate poisoned mice; iv 30 mg/kg): 0%; AUC0-t [4]: 1125.49 ± 336.57 * h·ng/g; AUC0-t of LCX001 in brain, times that of LCX001 ([4]; brain): 2.23 times; MRT0-t of LCX001 in brain, times that of LCX001 ([4]; brain): 3.29 times; MRT of LCX001 in plasma, times that of LCX001 [5]: 0.77 times
